In PubChem BioAssay (NCI):
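Method: 48-hour compound exposure of cells in 96-well plates, five concentrations, linear interpolation of endpoints. TGI: total growth inhibition.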

How the values were obtained:
Assay in all cases: inhibition of tumour cell growth, NCI panel, 48 h
[1] = system: TK-10 renal
[2] = system: MOLT-4 leukemia
[3] = system: UO-31 renal
[4] = system: A498 renal
[5] = system: SN12C renal
[6] = system: LOX IMVI melanoma
[7] = system: OVCAR-5 ovarian
[8] = system: MDA-N
[9] = system: SF-268 CNS
[10] = system: OVCAR-4 ovarian
[11] = system: ACHN renal
[12] = system: MDA-MB-231 breast
[13] = system: CCRF-CEM leukemia
[14] = system: IGROV1 ovarian
[15] = system: HCT-116 colon
[16] = system: SK-MEL-2 melanoma
[17] = system: SW-620 colon
[18] = system: HCT-15 colon
[19] = system: SK-MEL-5 melanoma
[20] = system: NCI-H522 lung
[21] = system: EKVX NSCLC
[22] = system: UACC-257 melanoma
[23] = system: A549 NSCLC
[24] = system: M14 melanoma
[25] = system: U251 CNS
[26] = system: SK-MEL-28 melanoma
[27] = system: NCI-H226 lung
[28] = system: NCI/ADR-RES ovarian
[29] = system: 786-0 renal
[30] = system: RXF 393 renal
[31] = system: MDA-MB-435
[32] = system: CAKI-1 renal
[33] = system: NCI-H460 lung
[34] = system: HCC-2998 colon
[35] = system: RPMI-8226 leukemia
[36] = system: KM12 colon
[37] = system: K-562 leukemia
[38] = system: SK-OV-3 ovarian
[39] = system: SNB-75 CNS
[40] = system: HOP-62 NSCLC
[41] = system: OVCAR-8 ovarian
[42] = system: SF-295 CNS
[43] = system: DU-145 prostate
[44] = system: HL-60(TB) leukemia
[45] = system: OVCAR-3 ovarian
[46] = system: SNB-19 CNS
[47] = system: PC-3 prostate
[48] = system: UACC-62 melanoma
[49] = system: SF-539 CNS
[50] = system: HT29 colon
[51] = system: COLO 205 colon
[52] = system: NCI-H23 lung
[53] = system: BT-549 breast
[54] = system: T-47D breast
[55] = system: MCF7 breast
[56] = system: SR leukemia
[57] = system: HOP-92 NSCLC

## CSc1nc(-c2cc3c(c(SC)n2)CCCCC3)cc2c1CCCCC2
[1]
  TGI: > 100 µM
[2]
  TGI: > 100 µM
[3]
  TGI: > 100 µM
[4]
  TGI: > 100 µM
[5]
  TGI: > 100 µM
[6]
  TGI: > 100 µM
[7]
  TGI: > 100 µM
[8]
  TGI: > 100 µM
[9]
  TGI: > 100 µM
[10]
  TGI: > 100 µM
[11]
  TGI: > 100 µM
[12]
  TGI: > 100 µM
[13]
  TGI: > 100 µM
[14]
  TGI: 85.9 µM
[15]
  TGI: > 100 µM
[16]
  TGI: > 100 µM
[17]
  TGI: > 100 µM
[18]
  TGI: > 100 µM
[19]
  TGI: > 100 µM
[20]
  TGI: 90.2 µM
[21]
  TGI: > 100 µM
[22]
  TGI: > 100 µM
[23]
  TGI: > 100 µM
[24]
  TGI: > 100 µM
[25]
  TGI: > 100 µM
[26]
  TGI: > 100 µM
[27]
  TGI: > 100 µM
[28]
  TGI: > 100 µM
[29]
  TGI: > 100 µM
[30]
  TGI: > 100 µM
[31]
  TGI: > 100 µM
[32]
  TGI: > 100 µM
[33]
  TGI: > 100 µM
[34]
  TGI: > 100 µM
[35]
  TGI: > 100 µM
[36]
  TGI: > 100 µM
[37]
  TGI: > 100 µM
[38]
  TGI: > 100 µM
[39]
  TGI: > 100 µM
[40]
  TGI: > 100 µM
[41]
  TGI: > 100 µM
[42]
  TGI: > 100 µM
[43]
  TGI: > 100 µM
[44]
  TGI: > 100 µM
[45]
  TGI: > 100 µM
[46]
  TGI: > 100 µM
[47]
  TGI: > 100 µM
[48]
  TGI: > 100 µM
[49]
  TGI: > 100 µM
[50]
  TGI: > 100 µM
[51]
  TGI: > 100 µM
[52]
  TGI: > 100 µM
[53]
  TGI: > 100 µM

## Cc1cn(C2CCC(/C=N\O)O2)c(=O)[nH]c1=O (stereo not given)
[54]
  TGI: > 100 µM
[2]
  TGI: > 100 µM
[3]
  TGI: > 100 µM
[4]
  TGI: > 100 µM
[5]
  TGI: > 100 µM
[6]
  TGI: > 100 µM
[7]
  TGI: > 100 µM
[8]
  TGI: > 100 µM
[10]
  TGI: > 100 µM
[11]
  TGI: > 100 µM
[12]
  TGI: > 100 µM
[13]
  TGI: > 100 µM
[14]
  TGI: > 100 µM
[15]
  TGI: > 100 µM
[16]
  TGI: > 100 µM
[17]
  TGI: > 100 µM
[55]
  TGI: > 100 µM
[18]
  TGI: > 100 µM
[56]
  TGI: > 100 µM
[19]
  TGI: > 100 µM
[21]
  TGI: > 100 µM
[22]
  TGI: > 100 µM
[23]
  TGI: > 100 µM
[24]
  TGI: > 100 µM
[25]
  TGI: > 100 µM
[26]
  TGI: > 100 µM
[27]
  TGI: > 100 µM
[28]
  TGI: > 100 µM
[29]
  TGI: > 100 µM
[57]
  TGI: > 100 µM
[30]
  TGI: > 100 µM
[31]
  TGI: > 100 µM
[32]
  TGI: > 100 µM
[33]
  TGI: > 100 µM
[34]
  TGI: > 100 µM
[35]
  TGI: > 100 µM
[36]
  TGI: > 100 µM
[37]
  TGI: > 100 µM
[39]
  TGI: > 100 µM
[40]
  TGI: > 100 µM
[41]
  TGI: > 100 µM
[42]
  TGI: > 100 µM
[43]
  TGI: > 100 µM
[45]
  TGI: > 100 µM
[46]
  TGI: > 100 µM
[47]
  TGI: > 100 µM
[48]
  TGI: > 100 µM
[49]
  TGI: > 100 µM
[50]
  TGI: > 100 µM
[51]
  TGI: > 100 µM
[52]
  TGI: > 100 µM
[53]
  TGI: > 100 µM
